Measured values: article PMC4580987, “Catalytic site inhibition of insulin-degrading enzyme by a small molecule induces glucose intolerance in mice” (Nature Communications, 2015)
“Also recorded” adds a separate entry of the source.

How the values were obtained:
isolated mouse islets = conditions: 3 or 10 µM
Method: Digestion was stopped by addition of cold HBSS with 10% FCS. The islets were washed twice in HBSS with FCS and once in RPMI with FCS. […] The next day, the islets were incubated in fresh DMEM with 10% FCS without glucose for 90 min. Then glucose at 2.8 mM together with BDM44378 was added; after 1 h, the supernatant was removed and replaced by fresh medium with 28 mM glucose, followed by another 1-h incubation in the presence or absence of inhibitor.

C57BL/6J mice = assay: Oral glucose tolerance test (OGTT) in C57BL/6J mice; format: in vivo, mouse
Method: OGTT and IPGTT were performed on 11 to 16 week-old male or female mice (n=4–7 per experimental group). C57BL/6J mice were purchased from Charles River Laboratories (France), Stock no. 000664. C57BL/6J Ide−/− mice were obtained from Guenette[20] and bred in the animal facility of INSERM U1151. WT C57BL/6J mice of the same genetic background were bred in the same animal facility in parallel. NOD Ide−/− mice were generated by backcrossing C57BL/6J Ide−/− mice with NOD wt mice bred in the animal facility of INSERM U1151 and maintained in this facility together with WT NOD mice. Normoglycemic WT and Ide−/− female NOD mice aged 14 weeks were used for OGTTs. Following a 6 h fasting period, a small tail cut was made, basal blood glucose was determined. […] Fifteen minutes later, blood glucose concentrations were measured before and after (up to 120 min, as shown) oral (2 g kg^−1 or 3 g kg^−1, as shown) or intraperitoneal (1.5 g kg^−1) glucose administration. In one series of OGTTs using 3 g kg^−1 glucose and shown in Fig. 5, groups of WT and Ide−/− were inverted between experiments, such that mice initially treated with vehicle were treated 2 days later with 1 and vice versa. Blood glucose levels were determined using an Accu-Check glucometer (Roche Diagnostics). Areas under the curves (AUC) for OGTT and IPGTT were calculated to evaluate glucose tolerance. Plasma insulin concentrations were measured by ELISA (cat. no. 10-1247-01,Mercodia) in blood samples collected 15 min before and 15 and 90 min relative to oral glucose injection. The protocol was approved by the ethical comitee CEEA Paris Descartes (CEEA34).

hIDE = target: T1, hIDE (Homo sapiens, UniProt P14735); assay: In vitro hIDE inhibition of insulin hydrolysis; format: biochemical; conditions: substrate native insulin; means of two experiments minimum, s.d.±10%; read-out: Selectivity IC50 hIDE
T1 construct: made in house
T1 sequence (P14735 1-1019): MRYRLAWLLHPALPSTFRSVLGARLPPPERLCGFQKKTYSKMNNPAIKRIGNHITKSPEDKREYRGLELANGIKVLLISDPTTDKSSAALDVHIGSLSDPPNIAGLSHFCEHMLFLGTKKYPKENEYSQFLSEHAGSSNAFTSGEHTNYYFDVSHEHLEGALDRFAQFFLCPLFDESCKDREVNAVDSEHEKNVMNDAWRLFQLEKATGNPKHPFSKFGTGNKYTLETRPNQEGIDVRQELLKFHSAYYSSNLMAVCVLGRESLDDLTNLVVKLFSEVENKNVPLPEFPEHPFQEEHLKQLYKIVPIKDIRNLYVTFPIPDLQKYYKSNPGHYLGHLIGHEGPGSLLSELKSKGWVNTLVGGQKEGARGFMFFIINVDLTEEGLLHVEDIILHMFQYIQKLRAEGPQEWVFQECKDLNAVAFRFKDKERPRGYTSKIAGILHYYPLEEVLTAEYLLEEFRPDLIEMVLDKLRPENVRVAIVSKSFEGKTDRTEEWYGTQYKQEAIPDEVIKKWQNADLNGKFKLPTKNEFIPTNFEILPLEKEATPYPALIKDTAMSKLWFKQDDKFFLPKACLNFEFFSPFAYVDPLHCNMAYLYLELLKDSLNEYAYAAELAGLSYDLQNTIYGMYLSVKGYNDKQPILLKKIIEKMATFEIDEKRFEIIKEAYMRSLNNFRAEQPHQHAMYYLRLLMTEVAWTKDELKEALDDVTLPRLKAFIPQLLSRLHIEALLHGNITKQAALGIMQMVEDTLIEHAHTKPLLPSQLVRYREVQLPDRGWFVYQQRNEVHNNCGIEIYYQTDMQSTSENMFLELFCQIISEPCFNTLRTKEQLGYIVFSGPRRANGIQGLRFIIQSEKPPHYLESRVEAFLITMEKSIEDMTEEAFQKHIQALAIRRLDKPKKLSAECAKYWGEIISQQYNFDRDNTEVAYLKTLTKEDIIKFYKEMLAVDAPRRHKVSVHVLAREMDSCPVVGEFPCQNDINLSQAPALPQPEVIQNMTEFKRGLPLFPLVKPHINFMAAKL
Method: The enzymatic activity of hIDE was assayed quantifying the amount of insulin (Actrapid) at the end of the reaction. The quantity of insulin was determined using a Luminex kit (HMHMAG-34K, Millipore). 20 μl of WT IDE in Hepes buffer (50 mM with 100 mM NaCl, pH 7.4) at 1 μg ml^−1 were pre-incubated 10 min at ambient temperature with 20 μl of test compound or vehicle in 96-well microtiter plates (dark, non-binding surface). The reaction was then started by the addition of 40 μl of insulin at 40 nM. The final concentration of hIDE and substrate was 0.25 μg ml^−1 and 20 nM, respectively. Incubations were performed at ambient temperature for 10 min. The reaction was then stopped by addition of 80 μl of 200 mM EDTA. The samples were diluted by a factor of 3, and 15 μl were transferred to 96-well microtiter plates (dark, clear bottom, non-binding surface) containing 15 μl of assay buffer (from Luminex Kit). Fifteen microlitre of insulin magnetic beads were added. Incubation was performed during 16–18 h at 4 °C under agitation. Wells were washed three times and 30 μl of hormone panel antibodies were added. The samples were incubated 30 min at ambient temperature under agitation. 30 μl of strepdavidin-phycoerythrin were added. Incubation was performed 30 min at ambient temperature under agitation. Wells were washed three times and 80 μl of drive fluid were added. The plate was then read with the MagPix apparatus. Data analysis was performed using Xlfit v 5.0 and GraphPad Prism v 4.0. Nonlinear curve fitting and statistical analysis was done using equation 1: […]
where A is minimum value of y; B is range of y; C is the IC50 value and D is slope factor.

SMILES: O=C(C[C@@H](Cc1ccc2ccccc2c1)n1cc(CNC(=O)c2ccc(F)cc2)nn1)NO [Compound 1]
- insulin in the supernatant of islets, Ide−/− (isolated mouse islets; islets from Ide−/− mice): did not respond
- insulin detectable in the supernatant of islets, wild-type (isolated mouse islets; islets from wild-type C57BL/6J mice, 2.8 and 28 mM glucose): increased, in a dose-dependent manner
- glucose tolerance in OGTT, WT C57BL/6J (C57BL/6J mice; 50 mg kg^−1 ip, 3 g kg^−1 oral glucose 15 min later): Impairs glucose tolerance in OGTT; also recorded: acute glucose intolerance
- glucose tolerance in OGTT, Ide−/− C57BL/6J (C57BL/6J mice; 50 mg kg^−1 ip, Ide−/− mice): did not develop glucose intolerance
- plasma insulin concentrations in OGTT, Ide−/− C57BL/6J (C57BL/6J mice; 50 mg kg^−1 ip, Ide−/− mice): no effect
- plasma glucose after oral glucose administration (OGTT compared with IPGTT) (C57BL/6J mice; 50 mg kg^−1 ip, oral glucose 2 g kg^−1): significantly increased
- plasma insulin levels in OGTT versus vehicle, WT C57BL/6J (C57BL/6J mice; baseline, 15 and 90 min after glucose load): similar
- IC50 (hIDE): 60 nM
